# Laboratory results taken from ChEMBL document CHEMBL2413025, “Synthesis, biological activity and molecular modeling studies on 1H-benzimidazole derivatives as acetylcholinesterase inhibitors” (Bioorg Med Chem, 2013).
# Assays:
# [1] = Selectivity ratio of IC50 for horse serum BChE to IC50 for electric eel AChE
# [2] = target: Acetylcholinesterase (Homo sapiens, UniProt P22303); assay: Inhibition of recombinant human AChE using acetylthiocholine iodide as substrate preincubated for 5 mins before substrate addition by Ellman's method
# Sequence of Acetylcholinesterase (Homo sapiens, UniProt P22303) (P22303 whole entry): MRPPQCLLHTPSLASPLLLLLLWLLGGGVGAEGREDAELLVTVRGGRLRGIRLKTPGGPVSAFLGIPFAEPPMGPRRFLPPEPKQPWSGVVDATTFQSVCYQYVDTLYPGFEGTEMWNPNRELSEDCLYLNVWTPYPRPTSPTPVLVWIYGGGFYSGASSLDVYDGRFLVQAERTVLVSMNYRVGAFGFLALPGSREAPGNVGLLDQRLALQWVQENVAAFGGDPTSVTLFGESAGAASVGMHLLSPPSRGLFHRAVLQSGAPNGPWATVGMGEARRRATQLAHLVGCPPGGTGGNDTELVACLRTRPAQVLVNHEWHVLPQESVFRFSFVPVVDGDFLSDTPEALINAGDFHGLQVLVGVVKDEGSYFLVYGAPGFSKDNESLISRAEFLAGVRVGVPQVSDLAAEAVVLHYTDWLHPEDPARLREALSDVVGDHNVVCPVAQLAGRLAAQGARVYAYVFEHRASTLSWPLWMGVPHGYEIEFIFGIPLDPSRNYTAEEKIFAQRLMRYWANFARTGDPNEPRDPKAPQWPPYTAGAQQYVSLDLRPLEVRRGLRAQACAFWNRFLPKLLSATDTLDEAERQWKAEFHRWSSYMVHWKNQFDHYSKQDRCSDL
# [3] = target: Cholinesterase (Equus caballus, UniProt P81908)
# Sequence of Cholinesterase (P81908 whole entry): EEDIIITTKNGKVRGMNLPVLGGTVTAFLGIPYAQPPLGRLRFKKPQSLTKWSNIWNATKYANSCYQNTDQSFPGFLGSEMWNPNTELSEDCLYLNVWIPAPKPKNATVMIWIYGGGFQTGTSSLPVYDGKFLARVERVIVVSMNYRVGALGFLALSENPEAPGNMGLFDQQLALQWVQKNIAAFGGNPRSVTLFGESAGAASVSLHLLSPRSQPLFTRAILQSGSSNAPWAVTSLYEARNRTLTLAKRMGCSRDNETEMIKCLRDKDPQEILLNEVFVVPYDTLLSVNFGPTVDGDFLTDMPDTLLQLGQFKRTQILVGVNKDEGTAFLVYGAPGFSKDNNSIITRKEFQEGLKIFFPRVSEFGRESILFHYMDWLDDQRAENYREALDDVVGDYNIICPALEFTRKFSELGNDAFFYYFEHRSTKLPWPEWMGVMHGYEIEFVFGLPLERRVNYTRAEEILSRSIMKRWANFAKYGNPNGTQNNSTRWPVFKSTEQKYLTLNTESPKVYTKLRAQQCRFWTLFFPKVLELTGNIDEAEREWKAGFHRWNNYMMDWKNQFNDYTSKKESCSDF
# Description: Inhibition of horse serum BChE using acetylthiocholine iodide as substrate preincubated for 5 mins before substrate addition by Ellman's method
# [4] = target: Acetylcholinesterase (Electrophorus electricus, UniProt O42275)
# Sequence of Acetylcholinesterase (Electrophorus electricus, UniProt O42275) (O42275 whole entry): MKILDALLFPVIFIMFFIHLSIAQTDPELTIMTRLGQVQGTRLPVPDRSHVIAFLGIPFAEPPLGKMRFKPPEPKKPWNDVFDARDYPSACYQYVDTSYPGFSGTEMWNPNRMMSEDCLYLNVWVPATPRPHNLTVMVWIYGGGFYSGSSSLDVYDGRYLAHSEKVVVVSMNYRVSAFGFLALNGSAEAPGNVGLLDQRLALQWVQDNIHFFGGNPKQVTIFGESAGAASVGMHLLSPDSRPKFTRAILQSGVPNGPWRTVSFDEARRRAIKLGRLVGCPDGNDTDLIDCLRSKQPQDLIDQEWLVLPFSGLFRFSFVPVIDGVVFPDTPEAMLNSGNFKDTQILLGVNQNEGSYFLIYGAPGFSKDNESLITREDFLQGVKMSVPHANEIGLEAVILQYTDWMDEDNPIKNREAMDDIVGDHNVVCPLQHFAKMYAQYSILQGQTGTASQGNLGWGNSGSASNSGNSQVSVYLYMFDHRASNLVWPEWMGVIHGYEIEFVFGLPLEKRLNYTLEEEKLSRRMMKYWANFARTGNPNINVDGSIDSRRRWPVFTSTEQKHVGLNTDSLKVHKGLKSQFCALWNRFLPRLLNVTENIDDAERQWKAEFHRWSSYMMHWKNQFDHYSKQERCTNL
# Description: Inhibition of electric eel AChE using acetylthiocholine iodide as substrate preincubated for 5 mins before substrate addition by Ellman's method
Structure (SMILES),Ratio IC50 [1],IC50 [2] [µM],IC50 [3] [µM],IC50 [4] [µM]
Cc1ccc2[nH]c(-c3ccc(O)cc3)nc2c1,0.3,> 100,4.67,15.9
CCN(CC)CCOc1ccc(-c2nc3ccc(C)cc3[nH]2)cc1,,51,6.48,2.34
CN(C)CCOc1ccc(-c2nc3ccc(Cl)cc3[nH]2)cc1,,8.02,> 100,2.68
c1ccc2[nH]c(-c3ccc(OCCN4CCCCC4)cc3)nc2c1,2.3,1.03,2.45,1.08
Cc1ccc2[nH]c(-c3ccc(OCCN4CCCC4)cc3)nc2c1,2.4,0.4,3.24,1.34
CC(C)N(CCOc1ccc(-c2nc3cc(Cl)ccc3[nH]2)cc1)C(C)C,12.8,,,
Cc1ccc2[nH]c(-c3ccc(OCCN(C)C)cc3)nc2c1,,12.3,> 100,5.06
c1ccc2[nH]c(-c3ccc(OCCN4CCCC4)cc3)nc2c1,7.6,2.13,23,3.05
CCN(CC)CCOc1ccc(-c2nc3ccccc3[nH]2)cc1,0.3,> 100,5.06,15.6
Oc1ccc(-c2nc3ccccc3[nH]2)cc1,0.3,> 100,4.59,17.3
CN(C)CCOc1ccc(-c2nc3ccccc3[nH]2)cc1,0.4,10.7,5.87,13.1
CCN(CC)CCOc1ccc(-c2nc3cc(Cl)ccc3[nH]2)cc1,,8.75,> 100,3.5
Cc1ccc2[nH]c(-c3ccc(OCCN4CCCCC4)cc3)nc2c1,1.6,0.39,1.37,0.84
Clc1ccc2[nH]c(-c3ccc(OCCN4CCOCC4)cc3)nc2c1,,9.73,> 100,11.1
c1ccc2[nH]c(-c3ccc(OCCN4CCOCC4)cc3)nc2c1,,> 100,> 100,18.8
Clc1ccc2[nH]c(-c3ccc(OCCN4CCCC4)cc3)nc2c1,1.1,1.4,3.42,3.24
CC(C)N(CCOc1ccc(-c2nc3ccccc3[nH]2)cc1)C(C)C,3.5,23.4,4.11,1.19
Clc1ccc2nc(-c3ccc(OCCN4CCCCC4)cc3)[nH]c2c1,,0.13,> 100,0.61
Cc1ccc2[nH]c(-c3ccc(OCCN4CCOCC4)cc3)nc2c1,,12.9,> 100,> 100
CC(C)N(CCOc1ccc(-c2nc3ccc(Cl)cc3[nH]2)cc1)C(C)C,,3.68,7.44,0.58
CCN(CC)CCOc1ccc(-c2nc3cc(C)ccc3[nH]2)cc1,2.8,,,
Oc1ccc(-c2nc3cc(Cl)ccc3[nH]2)cc1,0.6,> 100,8.52,14.6
